**Q.** With Cc1nc(N2CCCC(Cc3ccc(F)cc3)C2=O)sc1C(=O)NCc1ccccc1 (centres undefined) as the compound, how does the melting point read?
**A.** 154 to 155 °C

**Q.** With O=C1Cc2cc3c(cc2C(c2ccccc2)=NN1c1ccc([N+](=O)[O-])cc1)OCO3 as the compound, how does the melting point read?
**A.** > 200 °C

**Q.** Which melting point does the source give for CCOC(=O)c1ncoc1-c1ccc([N+](=O)[O-])cc1OC here?
**A.** 106 to 107 °C

**Q.** Which melting point does the source give for Cc1c(C)c2c(c(C)c1N)C(c1ccc(C(C)C)cc1)C1(CCCC1)O2 (centres undefined) here?
**A.** 132 to 133 °C

**Q.** Which melting point does the source give for Cc1ccccc1CNc1nc(Cl)nc2ccccc12 here?
**A.** 215 to 217 °C

**Q.** For Cc1c(NC(=O)CC(C)(C)C)cc2c(c1C)OCC2(C)c1ccc(C(C)C)cc1 (centres undefined), which melting point is on record?
**A.** 132 to 133 °C

**Q.** For COc1ccc(SSc2ccc(OC)cc2C(=O)Nc2ccc(S(N)(=O)=O)cc2)c(C(=O)Nc2ccc(S(N)(=O)=O)cc2)c1, which melting point is on record?
**A.** 242 to 243 °C

**Q.** For COc1cc(OC)c(N=C=O)c(OC)c1, which melting point is on record?
**A.** 67 to 70 °C

**Q.** With COc1ccc2c(=O)c(CSC)cn(C)c2c1 as the compound, how does the melting point read?
**A.** 135 to 136 °C

**Q.** For COc1c(CN)c2c(c3c1OC(C)(C)C3)C(c1ccccc1)=NC(C)(C)C2, which melting point is on record?
**A.** 140 to 142 °C

**Q.** For CCCCCCCCc1c(CCCCCCCC)c2cc(Br)sc2c2sc(Br)cc12, which melting point is on record?
**A.** 63.8 to 65.2 °C

**Q.** For O=C(NCc1ccc(Cl)cc1)c1ccc2sc(CN3CCOCC3)cc2c1O, which melting point is on record?
**A.** 200 °C

**Q.** Which melting point does the source give for CC(=O)NNC1=Nc2sc(Cl)cc2C(c2ccccc2F)=NC1 here?
**A.** 207 to 209 °C

**Q.** For Cc1c(Sc2ccc(Cl)cc2)c2c(N3CCN(C(=O)OC(C)(C)C)CC3)cccc2n1CC(=O)O, which melting point is on record?
**A.** 173 °C

**Q.** With Cc1nc(-c2ccc(C#N)cc2)sc1C(=O)N(CCO)[C@H](C)[C@](O)(Cn1cncn1)c1ccc(F)cc1F as the compound, how does the melting point read?
**A.** 113 to 119 °C

**Q.** For CN(C)C(=O)c1ccc([N+](=O)[O-])cc1S(=O)(=O)NC(C)(C)C, which melting point is on record?
**A.** 138 to 141 °C

**Q.** Which melting point does the source give for O=C(Nc1ccc2nc(CN3CCCCC3)ccc2c1)c1ccc(-c2ccc(Cl)cc2)cc1 here?
**A.** 211 to 213 °C

**Q.** For CS(=O)(=O)c1nnc(-c2ccc(Cl)cc2)o1, which melting point is on record?
**A.** 159 to 160 °C

**Q.** For Nc1ccc(Nc2cccc(O)c2)cc1, which melting point is on record?
**A.** 146 to 149 °C

**Q.** For CCCc1cc(I)ccc1O, which melting point is on record?
**A.** 54 to 56 °C

**Q.** Which melting point does the source give for COC(=O)c1sc(Cl)c(Cl)c1NC(C)=O here?
**A.** 136 to 138 °C

**Q.** For CCCCOc1ccc(C#CC2(O)CN3CCC2CC3)cc1 (single isomer, unassigned; (+)), which melting point is on record?
**A.** 115 to 116 °C

**Q.** For CCCCOCC(O)CN1C(=O)NC(=O)C(CC)(c2ccccc2)C1=O (centres undefined), which melting point is on record?
**A.** 92 °C

**Q.** Which melting point does the source give for c1ccc(C2(n3ccnc3)c3ccccc3C(c3ccccc3)(n3ccnc3)c3ccccc32)cc1 (centres undefined) here?
**A.** 258 to 260 °C

**Q.** Which melting point does the source give for CCCCCCCCSCCCN=C=O here?
**A.** 84 to 85 °C

**Q.** With CC(C(N)=O)c1ccc(C(=O)c2cccs2)cc1 (centres undefined) as the compound, how does the melting point read?
**A.** 108 to 124 °C

**Q.** Which melting point does the source give for OC(c1ccccc1)c1ccc(Nc2nccc(-c3cnc4ccccn34)n2)cc1 (centres undefined) here?
**A.** 213 to 216 °C

**Q.** With COc1ccc(S(=O)(=O)C2(C(=O)O)CCN(Cc3ccc(Cl)c(Cl)c3)CC2)cc1 as the compound, how does the melting point read?
**A.** 192 to 195 °C

**Q.** Which melting point does the source give for Cc1[nH]cnc1CN1CCC(N)=CC1=O here?
**A.** 268 to 271 °C

**Q.** Which melting point does the source give for COc1ccc(C(=O)n2c(C(=O)O)cc3cc(OC)ccc32)cc1 here?
**A.** 185 to 187 °C

**Q.** Which melting point does the source give for COc1cc2c(Nc3ccc(C)c(O)c3)ncnc2cc1OCc1cccnc1 here?
**A.** 258 to 259 °C

**Q.** Which melting point does the source give for N[C@@H](CO)C(=O)NCc1ccccc1 here?
**A.** 76 to 80 °C

**Q.** Which melting point does the source give for Cc1ccc2c(c1)C(C)(C)[C@@H](C)[C@H](C)C2(C)C (relative stereo) here?
**A.** 65 to 66 °C

**Q.** With CC(C)(C)OC(=O)CN1C(=O)[C@@H](N[C@@H](CCCCNC(=O)OC(C)(C)C)C(=O)O)CSc2ccccc21 as the compound, how does the melting point read?
**A.** 134 to 135 °C

**Q.** With COCN(c1noc(C)c1C)S(=O)(=O)C1(Br)C=CC=CC1 (centres undefined) as the compound, how does the melting point read?
**A.** 71 to 72 °C

**Q.** Which melting point does the source give for COc1cc2nc(N3CCN(C(=O)C=Cc4ccccc4)CC3)nc(N)c2cc1OC here?
**A.** 245 to 248 °C

**Q.** With CN(CC1Nc2cc(Cl)c(S(N)(=O)=O)cc2S(=O)(=O)N1)C(=O)CBr (centres undefined) as the compound, how does the melting point read?
**A.** 150 to 152 °C

**Q.** With CCOC(=O)c1sc2ccc(O)cc2c1Cl as the compound, how does the melting point read?
**A.** 160 to 161 °C

**Q.** Which melting point does the source give for CCC(NC(=O)C1CC1)c1ccc(Cl)c2nc3n(c12)CCCN3c1ccc(Cl)cc1Cl (centres undefined) here?
**A.** 251 to 253 °C

**Q.** For Cc1nc2cc(NC(=O)c3cc4cc(Cl)ncc4n3Cc3cccc(F)c3)ccc2n1C, which melting point is on record?
**A.** 240 to 242 °C

**Q.** For CC(C)C(=O)Nc1c(C(=O)c2occc2CO)[nH]c2cc(Cl)ccc12, which melting point is on record?
**A.** 170 to 171 °C

**Q.** Which melting point does the source give for CCOC(=O)CNc1cnc(-c2ccc(OCc3ccccc3)c(C34CC5CC(CC(C5)C3)C4)c2)nc1 here?
**A.** 153 to 156 °C

**Q.** With N#Cc1ccc(N2CC(C(=O)O)OC2=O)cc1 (centres undefined) as the compound, how does the melting point read?
**A.** 204 °C

**Q.** Which melting point does the source give for COc1ccc(-c2nc(CN3CCCCC3)nc3cc(OC)c(OC)cc23)cc1OC here?
**A.** 130 to 132 °C

**Q.** Which melting point does the source give for CC#Cc1ccc(NC(=O)c2ccccc2NCc2ccc(OC)nc2)cc1C(F)(F)F here?
**A.** 123 to 124 °C

**Q.** For COc1ccc(CC(O)c2ccccn2)cc1OC (centres undefined), which melting point is on record?
**A.** 93 to 94 °C

**Q.** For Fc1cccc(-c2sc(-c3ccccc3)cc2-c2ccccc2)c1, which melting point is on record?
**A.** 118 to 119 °C

**Q.** Which melting point does the source give for CCCCC1(CCCC)CS(=O)(=O)c2ccc(N(C)C)cc2[C@@H](c2ccc(OCc3cccc(CCC(=O)O)n3)cc2)[C@H]1O here?
**A.** 105 to 107 °C

**Q.** Which melting point does the source give for COc1cc(OC)nc(NC(=O)NS(=O)(=O)Oc2ccccc2)n1 here?
**A.** 136 to 139 °C
